Test results as given in patent publication US20160128953A1, “TRANS-CLOMIPHENE AND ITS ANALOGUES AS AGENTS THAT INCREASE BONE MINERAL DENSITY” (REPROS THERAPEUTICS INC., priority 2013, published 2016).
Marks after values point to notes of the source that are not given here.

What was measured:
[1] = system: human males with secondary hypogonadism; experiment: Serum CTX (biomarker of bone resorption) by immunoassay; type: in vivo
Protocol: (§1) The effect of the isolated trans-clomiphene isomer on the serum level of biomarkers of bone resorption was assessed in human males with secondary hypogonadism.
(§2) Adult male subjects with a morning total testosterone blood level of <300 ng/dl and a serum LH of <15 IU/ml were administered either trans-clomiphene ([…] or 25 mg/day via oral capsule) or a topical testosterone gel (Testim®, 50 mg applied daily) over a three month period. Quantitative determination of baseline serum (circulating) estrogen (E2), dihydrotestosterone (DHT), sex hormone binding globulin (SHBG), P1NP-1 and CTX measurements were made in the subjects by immunoassay. Treatment with either trans-clomiphene (12.5 mg or 25 mg) or Testim® was then initiated. Follow-up measurements were taken at 3 weeks post initial dose, 6 months post initial dose and one month after cessation of treatment. The results are presented below at Table 1:
(§3) The effects of trans-clomiphene and Testim® on the level of serum biomarkers of bone formation (P1NP) and bone resorption (CTX) are illustrated at FIGS. 1 and 2. […] The lower levels of P1NP-1 at both trans-clomiphene doses are well within the normal range (15-80 μg/L). A decrease in CTX levels was also observed at both trans-clomiphene dosages; however, the decrease was much stronger at the 25 mg dose. […]

[2] = system: human males with secondary hypogonadism; experiment: Serum P1NP-1 (biomarker of bone formation) by immunoassay; type: in vivo
Protocol: as §1, §2, §3

[3] = system: human males with secondary hypogonadism; experiment: Serum hormone (DHT, E2) and SHBG levels by immunoassay in treated men; type: in vivo; conditions: for DHT / E2 / SHBG: serum
Protocol: as §1
Adult male subjects with a morning total testosterone blood level of <300 ng/dl and a serum LH of <15 IU/ml were administered either trans-clomiphene (12 mg/day or 25 mg/day via oral capsule) or a topical testosterone gel (Testim®, 50 mg applied daily) over a three month period. Quantitative determination of baseline serum (circulating) estrogen (E2), dihydrotestosterone (DHT), sex hormone binding globulin (SHBG), P1NP-1 and CTX measurements were made in the subjects by immunoassay. Treatment with either trans-clomiphene (12.5 mg or 25 mg) or Testim® was then initiated. […]

hypogonadal males = experiment: Total hip bone mineral density (BMD) by DEXA scan; type: in vivo, human; conditions: 6 months daily trans-clomiphene (12.5 mg, or up-titrated to 25 mg/day); 15 hypogonadal males; FIG. 3
Protocol: The effect of trans-clomiphene on total hip bone mineral density (BMD) was assessed by dual-energy x-ray absorptiometry (DEXA) scans in 15 hypogonadal males (morning testosterone less than 300 ng/dL) with body mass index (BMI) ranging between 25 and 42 and no evidence of bone disease (including ostepenia) prior to treatment. DEXA scans were performed prior to treatment with trans-clomiphene to determine baseline measurements and after 6 months of daily administration of trans-clomiphene. Four of the 15 subjects received 12.5 mg trans-clomiphene administered daily throughout the 6 month period. Eleven of the 15 subjects began at the 12.5 mg/day dose but were later up-titrated to 25 mg/day. Total hip BMD was also assessed in 25 placebo (control) subjects at the same time points. BMD measurements at the 6 month time point in both treated and control subjects were compared to baseline measurements.

[4] = 12.5 mg Androxal daily oral, 3 months
[5] = 12.5 mg Androxal daily oral, 6 weeks
[6] = 12.5 mg Androxal daily oral, Baseline (before TxT)
[7] = 12.5 mg Androxal daily oral, Post TxT (one month after cessation)
[8] = 25 mg Androxal daily oral, 3 months
[9] = 25 mg Androxal daily oral, 6 weeks
[10] = 25 mg Androxal daily oral, Baseline (before TxT)
[11] = 25 mg Androxal daily oral, Post TxT (one month after cessation)

## CCN(CC)CCOc1ccc(/C(=C(/Cl)c2ccccc2)c2ccccc2)cc1 [Androxal, trans-clomiphene]
[1]; 25 mg trans-clomiphene daily
  decrease in serum CTX levels, 25 mg dose compared with 12.5 mg dose: much stronger
[1]; both trans-clomiphene dosages (12.5 mg and 25 mg daily), FIG. 2
  change in serum CTX levels: decrease
[2]; 25 mg trans-clomiphene daily, dose dependency
  change in serum P1NP-1 levels, 25 mg dose compared with 12.5 mg dose: more robust decrease
[2]; either dose of trans-clomiphene (12.5 mg or 25 mg daily), FIG. 1
  change in serum P1NP-1 levels: decrease
[3]; after cessation of trans-clomiphene treatment
  serum estrogen levels after cessation of treatment compared with baseline: remained elevated
[3]; daily administration of trans-clomiphene for 6 weeks and 3 months
  change in serum estradiol 17β (E2): significant increase
[3]; [4]
  DHT: 20.4^ ng/DL
  E2: 56.7*¶ pg/mL
  SHBG: 29.3 nmol/L
[3]; [5]
  DHT: 22.7*^ ng/DL
  E2: 52.1*¶ pg/mL
  SHBG: 28.6 nmol/L
[3]; [6]
  DHT: 15 ng/dL
  E2: 20.8 pg/mL
  SHBG: 24.7 nmol/L
[3]; [7]
  DHT: 13.7 ng/dL
  E2: 39.1* pg/mL
  SHBG: 24.9 nmol/L
[3]; [8]
  DHT: 23.2*^ ng/DL
  E2: 46.3*¶ pg/mL
  SHBG: 29.5 nmol/L
[3]; [9]
  DHT: 22.2*^ ng/DL
  E2: 48.3*¶ pg/mL
  SHBG: 32 nmol/L
[3]; [10]
  DHT: 15.3 ng/dL
  E2: 24.7 pg/mL
  SHBG: 26.4 nmol/L
[3]; [11]
  DHT: 15.8 ng/dL
  E2: 40.2* pg/mL
  SHBG: 28.7 nmol/L
Hypogonadal males
  increase in total hip BMD versus baseline: about 1.23%
